The values below come from ChEMBL document CHEMBL1201862, “PubChem BioAssay data set” (2004).

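96-well plates; 48 h exposure; 5 concentrations. Endpoints by linear interpolation between flanking doses. Not reached: highest tested concentration assigned. Here, GI50 denotes the concentration required for 50% inhibition of growth.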 The source made the active and inactive calls. Rule as the data show it: active = GI50 up to about 1.1 µM and inactive = higher. Some results are limits rather than exact numbers.

Among the test systems are U-251; EKVX; RPMI-8226; A498; Malme-3M; NCI/ADR-RES; BT-549; HCT-116; UO-31; MDA-N; MDA-MB-435; K562; SR; OVCAR-3; SNB-19; NCI-H460; SN12C; SF-539; UACC-62; HCC 2998.
Assay in all cases: DTP human tumour cell line panel, 48 h

On to `CCc1nnc2sc(-c3ccc(-c4ccc(Cl)cc4Cl)o3)nn12`, for which the GI50 in the test on U-251 is 37.3 µM (inactive); in the test on EKVX, 54.8 µM (inactive); in the test on RPMI-8226 it was 29.2 µM (inactive); with A498 it was 30.3 µM (inactive); in the test on Malme-3M, > 100 µM (inactive); in the test with NCI/ADR-RES, 50.2 µM (inactive). For the same compound, the GI50 is 50 µM (inactive) with BT-549; 62.5 µM (inactive) with HCT-116; 67.8 µM (inactive) with UO-31; 66.5 µM (inactive) with MDA-N; > 100 µM (inactive) with MDA-MB-435; 47.2 µM (inactive) in the test with K562. In addition, the GI50 in the test with SR was 40.3 µM (inactive); in the test with OVCAR-3, 40.6 µM (inactive); in the test with SNB-19, > 100 µM (inactive); in the test on NCI-H460, 67 µM (inactive); in the test on SN12C it was 60.7 µM (inactive).

Consider `N/C(S)=N/N=C/c1cc(CN2CCOCC2)c(N)cn1`, for which the GI50 with U-251 was 56.8 µM (inactive); in the test with EKVX, 63.1 µM (inactive); in the test with RPMI-8226, 79.8 µM (inactive); with A498, 37 µM (inactive); with Malme-3M, 31.3 µM (inactive); in the test on NCI/ADR-RES it was 31 µM (inactive). Moreover, the GI50 in the test on SF-539 is 27.5 µM (inactive); with BT-549, 78.5 µM (inactive); in the test with HCT-116, 61.8 µM (inactive); with UO-31, 28.2 µM (inactive); in the test with MDA-N, 56.1 µM (inactive); in the test with MDA-MB-435, 70.3 µM (inactive). The GI50 in the test on K562 is 89.5 µM (inactive); with SR, 44.4 µM (inactive); in the test with OVCAR-3 it was 27.7 µM (inactive); in the test with SNB-19 it was 47.1 µM (inactive); with NCI-H460 it was 38.4 µM (inactive); in the test on UACC-62, 42.4 µM (inactive). Further, the GI50 in the test with SN12C was 62.4 µM (inactive).

For the compound `CCCCNC(=O)c1cc(S(=O)(=O)n2ccnc2O)c(SC)cc1Cl`, the GI50 in the test on U-251 is > 100 µM (inactive); in the test with EKVX it was > 100 µM (inactive); in the test with RPMI-8226, > 100 µM (inactive); with A498, 26.1 µM (inactive); with Malme-3M, > 100 µM (inactive); with NCI/ADR-RES, > 100 µM (inactive). Further, the GI50 with SF-539, in the test with BT-549, with HCT-116, with UO-31, in the test on MDA-N and in the test on MDA-MB-435 was > 100 µM (inactive) throughout. Besides, the GI50 in the test on K562, in the test on SR, with OVCAR-3, with SNB-19, in the test with NCI-H460 and in the test on UACC-62 was > 100 µM (inactive) throughout. In addition, the GI50 with SN12C and with HCC 2998 was > 100 µM (inactive) each time.

Take `Cc1c(N2C(=O)/C(=C/c3ccc(N(CCC#N)CCC#N)cc3)N=C2c2ccccc2)c(=O)n(-c2ccccc2)n1C`: the GI50 with U-251, with EKVX, in the test with RPMI-8226, in the test with A498, in the test on Malme-3M and in the test with NCI/ADR-RES was > 100 µM (inactive) in each case. The GI50 in the test with SF-539, in the test with BT-549, in the test with HCT-116, in the test with UO-31, with MDA-N and with MDA-MB-435 was > 100 µM (inactive) throughout. Moreover, the GI50 with SR, in the test on OVCAR-3, in the test on SNB-19, in the test with NCI-H460, with UACC-62 and in the test with SN12C was > 100 µM (inactive) throughout. The GI50 with HCC 2998 was > 100 µM (inactive).

For `COc1ccc(/C=C2\CCC/C(=C\c3ccc(O)c(CN4CCCCC4)c3)C2=O)cc1`, the GI50 was 4.06 µM (inactive) in the test with U-251; 10 µM (inactive) with EKVX; 3.89 µM (inactive) with RPMI-8226; 9.57 µM (inactive) in the test with A498; 11.5 µM (inactive) in the test with Malme-3M; 2.77 µM (inactive) with NCI/ADR-RES. Besides, the GI50 with SF-539 is 3.08 µM (inactive); with BT-549, 4.65 µM (inactive); with HCT-116 it was 2.82 µM (inactive); in the test with UO-31 it was 6.75 µM (inactive); in the test on MDA-N it was 3.55 µM (inactive); in the test on MDA-MB-435, 3.1 µM (inactive). Moreover, the GI50 in the test with K562 is 3.96 µM (inactive); in the test with SR, 1.35 µM (inactive); in the test on OVCAR-3 it was 10.8 µM (inactive); in the test on SNB-19, 23.4 µM (inactive); in the test on NCI-H460, 4.98 µM (inactive); in the test on UACC-62, 3.9 µM (inactive). Also, the GI50 with SN12C was 4.76 µM (inactive); in the test with HCC 2998, 5.45 µM (inactive).

With `COc1ccc2c(O)c3[n+](cc2c1OC)CCc1cc2c(cc1-3)OCO2`, the GI50 in the test with U-251 was > 100 µM (inactive); with EKVX, > 100 µM (inactive); in the test with RPMI-8226, 84.3 µM (inactive); with A498, 61.5 µM (inactive); in the test on NCI/ADR-RES, > 100 µM (inactive); in the test on SF-539, > 100 µM (inactive). The GI50 in the test on BT-549 was 72.4 µM (inactive); in the test with HCT-116 it was 41.8 µM (inactive); with MDA-N, 33.6 µM (inactive); in the test with MDA-MB-435, 24.8 µM (inactive); in the test on K562, 38.5 µM (inactive); with SR, 39.3 µM (inactive). Also, the GI50 in the test with OVCAR-3 was > 100 µM (inactive); in the test with SNB-19 it was > 100 µM (inactive); in the test with NCI-H460, 79.4 µM (inactive); with UACC-62, 37.4 µM (inactive); with SN12C it was > 100 µM (inactive); with HCC 2998 it was > 100 µM (inactive).

With `C=CCOC1OC(CS(=O)(=O)O)C(O)C(O)C1O` (stereo not drawn), the GI50 in the test with U-251, in the test on RPMI-8226, in the test with A498, in the test with Malme-3M, with NCI/ADR-RES and in the test on BT-549 was > 100 µM (inactive) in each case. Also, the GI50 is > 100 µM (inactive) with HCT-116; > 100 µM (inactive) in the test with UO-31; > 100 µM (inactive) with MDA-N; > 100 µM (inactive) in the test with MDA-MB-435; 27 µM (inactive) in the test with K562; > 100 µM (inactive) in the test on SR. For the same compound, the GI50 in the test on OVCAR-3, in the test with SNB-19, with NCI-H460, in the test with UACC-62, with SN12C and in the test on HCC 2998 was > 100 µM (inactive) in each case.

`C/C=C(/C)C(=O)O[C@H]1[C@H]2[C@@H]([C@@H](OC(C)=O)[C@H](C)C(=O)[C@@]34C[C@@H](C)C(=O)[C@]3(/C=C(\C)[C@H]1OC(C)=O)O4)C2(C)C`: the GI50 in the test with U-251 was 5.7 µM (inactive); with EKVX it was 3.83 µM (inactive); in the test with RPMI-8226, 3.35 µM (inactive); with A498, 4.75 µM (inactive); in the test on NCI/ADR-RES, 4.12 µM (inactive); in the test with SF-539 it was 3.1 µM (inactive). Further, the GI50 was 2.84 µM (inactive) with BT-549; 3.1 µM (inactive) with HCT-116; 3.85 µM (inactive) in the test on UO-31; 1.27 µM (inactive) with MDA-N; 2.99 µM (inactive) in the test with MDA-MB-435; 2.6 µM (inactive) in the test on K562. For the same compound, the GI50 in the test with SR is 2.54 µM (inactive); in the test on OVCAR-3 it was 3.95 µM (inactive); with SNB-19, 4.32 µM (inactive); in the test with NCI-H460 it was 1.31 µM (inactive); in the test with UACC-62, 3.35 µM (inactive); with SN12C, 2.42 µM (inactive). Moreover, in the test with HCC 2998, the GI50 is 5.16 µM (inactive).

As for `COc1cccc(C2c3cc4c(cc3OC(NNS(=O)(=O)c3ccc(C)cc3)C2C)OCO4)c1O` (stereo not drawn), the GI50 in the test on U-251 is 22.3 µM (inactive); with EKVX it was 20.2 µM (inactive); in the test on RPMI-8226 it was 6.31 µM (inactive); in the test on A498, 25.5 µM (inactive); in the test with Malme-3M, 23.8 µM (inactive); in the test with SF-539, 21.6 µM (inactive). The GI50 with BT-549 is 19.7 µM (inactive); in the test with HCT-116, 15.3 µM (inactive); with UO-31, 18.5 µM (inactive); in the test on MDA-N, 24.5 µM (inactive); in the test on MDA-MB-435 it was 23.4 µM (inactive); with K562, 10.2 µM (inactive). In addition, the GI50 was 6.79 µM (inactive) with SR; 18.9 µM (inactive) with OVCAR-3; 28.3 µM (inactive) in the test with SNB-19; 21.8 µM (inactive) in the test on NCI-H460; 22 µM (inactive) in the test on UACC-62; 37 µM (inactive) in the test on SN12C. Besides, the GI50 with HCC 2998 was 31.1 µM (inactive).

As to `O=C(CCCn1cnc([N+](=O)[O-])n1)NCCn1ccnc1[N+](=O)[O-]`, the GI50 in the test with U-251, in the test with EKVX, in the test on RPMI-8226, in the test with BT-549, with UO-31 and in the test with MDA-N was > 100 µM (inactive) each time. The GI50 with K562, in the test with SR, in the test on OVCAR-3, with NCI-H460 and in the test on UACC-62 was > 100 µM (inactive) in each case.

Consider `COc1cc([C@@H]2c3cc4c(cc3[C@H](O)[C@H]3COC(=O)[C@H]23)OCO4)cc(OC)c1OC` [PODOFILOX], for which the 50% growth inhibitory concentration (GI50) in the test with RPMI-8226 is < 0.005 µM (active); in the test with A498 it was < 0.005 µM (active); in the test with Malme-3M it was 3.01 µM (inactive); in the test on NCI/ADR-RES, < 0.005 µM (active); in the test on SF-539, < 0.005 µM (active); in the test with BT-549, 0.0232 µM (active). Further, the concentration for 50% growth inhibition (GI50) in the test on HCT-116, in the test on MDA-N, with MDA-MB-435, with K562, in the test on SR and with SNB-19 was < 0.005 µM (active) in each case. Also, in the test on UACC-62, the GI50 was < 0.005 µM (active).

The term GI50 denotes the concentration giving 50% growth inhibition.
